Activity calls are given as the source filed them. The calls are words filed in the database; no cut-off is given here.
Columns and labels:
[1] = target: Neuromedin-K receptor (Homo sapiens) (UniProt P29371); test: Activity at human NK3 receptor at 10 uM
[2] = target: T1, UDP-glucuronosyltransferase 2B17 (Homo sapiens, UniProt O75795); test: Substrate activity at recombinant human UGT2B17 expressed in baculovirus infected insect cell membranes assessed as enzyme-mediated glucuronidation by measuring Vmax per mg protein at 50 uM preincubated for 5 mins followed by UDPGA addition and measured after 60 mins by LC-MS/MS analysis; type: ADME; details: 1 h
T1 sequence (O75795 whole entry): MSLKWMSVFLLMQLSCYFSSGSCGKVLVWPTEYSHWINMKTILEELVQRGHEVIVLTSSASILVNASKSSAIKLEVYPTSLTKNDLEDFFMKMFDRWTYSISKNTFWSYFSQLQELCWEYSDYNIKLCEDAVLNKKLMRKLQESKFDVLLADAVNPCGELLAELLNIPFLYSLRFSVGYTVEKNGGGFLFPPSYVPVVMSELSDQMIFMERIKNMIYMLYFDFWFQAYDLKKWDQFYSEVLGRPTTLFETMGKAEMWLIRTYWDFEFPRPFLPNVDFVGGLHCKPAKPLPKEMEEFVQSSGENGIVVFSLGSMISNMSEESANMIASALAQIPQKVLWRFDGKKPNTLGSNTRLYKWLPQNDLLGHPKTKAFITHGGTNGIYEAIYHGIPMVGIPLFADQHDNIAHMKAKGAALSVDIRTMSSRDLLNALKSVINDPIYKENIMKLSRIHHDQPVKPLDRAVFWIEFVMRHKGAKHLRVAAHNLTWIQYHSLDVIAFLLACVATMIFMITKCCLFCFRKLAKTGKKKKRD

[3] = target: Insulin receptor (Homo sapiens) (UniProt P06213); test: Activity at human IR at 10 uM
[4] = target: Potassium voltage-gated channel subfamily KQT member 1 (Homo sapiens, UniProt P51787); test: Activity at human KCNQ1 at 10 uM
[5] = target: P2Y purinoceptor 1 (Homo sapiens) (UniProt P47900); test: Activity at human P2Y1 receptor at 10 uM
[6] = target: Vasopressin V1a receptor (Homo sapiens) (UniProt P37288); test: Activity at human V1A receptor at 10 uM
Sequence of Vasopressin V1a receptor (Homo sapiens) (P37288 whole entry, looked up): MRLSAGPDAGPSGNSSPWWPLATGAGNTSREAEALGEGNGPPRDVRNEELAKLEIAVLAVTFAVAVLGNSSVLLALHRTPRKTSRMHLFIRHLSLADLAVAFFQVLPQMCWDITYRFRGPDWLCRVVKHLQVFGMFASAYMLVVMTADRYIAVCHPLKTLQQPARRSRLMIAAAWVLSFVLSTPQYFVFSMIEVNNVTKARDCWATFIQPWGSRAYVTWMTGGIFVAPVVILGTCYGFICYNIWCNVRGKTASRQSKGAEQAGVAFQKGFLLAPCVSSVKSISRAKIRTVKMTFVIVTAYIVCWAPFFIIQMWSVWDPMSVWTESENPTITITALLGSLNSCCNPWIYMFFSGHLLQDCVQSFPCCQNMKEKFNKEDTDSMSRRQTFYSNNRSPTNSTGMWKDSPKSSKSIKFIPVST

[7] = target: Lysophosphatidic acid receptor 1 (Homo sapiens) (UniProt Q92633); test: Activity at human LPA1 receptor at 10 uM
[8] = Half life in patient with advanced solid tumor at 120 mg, po administered once daily measured on day 15; type: ADME, organism-based; details: human, in vivo
UGT2B17 = target: T2, UGT2B17 (Homo sapiens, UniProt O75795); test: Substrate activity at UGT2B17 in human intestinal microsomes assessed as enzyme-mediated glucuronidation by measuring Km at 2 to 1000 uM preincubated for 5 mins followed by UDPGA addition and measured after 60 mins by LC-MS/MS analysis; type: ADME, Intestine
T2 sequence (O75795 whole entry): T1 sequence (O75795 whole entry)

[9] = target: Prostaglandin F2-alpha receptor (Homo sapiens) (UniProt P43088); test: Activity at human Prostanoid FP receptor at 10 uM
Sequence of Prostaglandin F2-alpha receptor (Homo sapiens) (P43088 whole entry): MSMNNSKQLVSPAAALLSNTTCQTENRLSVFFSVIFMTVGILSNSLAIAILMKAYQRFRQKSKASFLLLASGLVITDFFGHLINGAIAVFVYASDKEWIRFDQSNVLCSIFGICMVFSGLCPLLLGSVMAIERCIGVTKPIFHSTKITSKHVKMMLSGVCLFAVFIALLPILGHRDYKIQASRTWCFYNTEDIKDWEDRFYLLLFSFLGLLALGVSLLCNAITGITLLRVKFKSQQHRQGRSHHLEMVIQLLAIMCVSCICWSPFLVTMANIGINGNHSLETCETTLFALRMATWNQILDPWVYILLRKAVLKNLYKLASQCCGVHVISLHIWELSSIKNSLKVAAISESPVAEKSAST

[10] = target: Calcium/calmodulin-dependent protein kinase type II subunit gamma (Homo sapiens) (UniProt Q13555); test: Activity at human CAMK2G at 10 uM
Sequence of Calcium/calmodulin-dependent protein kinase type II subunit gamma (Homo sapiens) (Q13555 whole entry): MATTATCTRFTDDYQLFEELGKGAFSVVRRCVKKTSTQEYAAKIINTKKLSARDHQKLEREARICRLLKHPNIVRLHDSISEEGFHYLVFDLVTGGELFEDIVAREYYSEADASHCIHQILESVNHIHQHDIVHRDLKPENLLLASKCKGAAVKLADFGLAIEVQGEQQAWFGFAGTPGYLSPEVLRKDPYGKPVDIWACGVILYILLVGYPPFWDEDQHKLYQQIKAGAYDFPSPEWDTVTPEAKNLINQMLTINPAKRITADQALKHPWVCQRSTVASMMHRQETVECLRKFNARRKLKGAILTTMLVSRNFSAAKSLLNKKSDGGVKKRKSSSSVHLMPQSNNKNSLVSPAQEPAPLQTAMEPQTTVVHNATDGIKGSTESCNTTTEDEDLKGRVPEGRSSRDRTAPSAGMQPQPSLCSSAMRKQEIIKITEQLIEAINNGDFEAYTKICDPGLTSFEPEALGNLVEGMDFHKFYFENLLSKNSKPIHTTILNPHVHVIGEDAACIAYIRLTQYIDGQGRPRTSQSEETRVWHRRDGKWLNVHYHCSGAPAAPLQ

[11] = target: CX3C chemokine receptor 1 (Homo sapiens) (UniProt P49238); test: Activity at human CX3CR1 receptor at 10 uM
[12] = Dose normalized AUClast in Beagle dog at 5 mg/kg, po administered via gavage by UPLC-MS analysis; type: ADME, organism-based, Canis lupus familiaris; details: in vivo
Cytochrome P450 2D6 = Cytochrome P450 2D6 (Homo sapiens, UniProt P10635); test: Inhibition of CYP2D6 in human liver microsomes up to 50 uM using dextromethorphan as substrate measured after 10 mins in presence of NADPH by LC-MS/MS analysis; type: ADME
[13] = target: Tyrosine-protein kinase Lyn (Homo sapiens) (UniProt P07948); test: Activity at human Lyn at 10 uM
Sequence of Tyrosine-protein kinase Lyn (Homo sapiens) (P07948 2-512 limits assumed): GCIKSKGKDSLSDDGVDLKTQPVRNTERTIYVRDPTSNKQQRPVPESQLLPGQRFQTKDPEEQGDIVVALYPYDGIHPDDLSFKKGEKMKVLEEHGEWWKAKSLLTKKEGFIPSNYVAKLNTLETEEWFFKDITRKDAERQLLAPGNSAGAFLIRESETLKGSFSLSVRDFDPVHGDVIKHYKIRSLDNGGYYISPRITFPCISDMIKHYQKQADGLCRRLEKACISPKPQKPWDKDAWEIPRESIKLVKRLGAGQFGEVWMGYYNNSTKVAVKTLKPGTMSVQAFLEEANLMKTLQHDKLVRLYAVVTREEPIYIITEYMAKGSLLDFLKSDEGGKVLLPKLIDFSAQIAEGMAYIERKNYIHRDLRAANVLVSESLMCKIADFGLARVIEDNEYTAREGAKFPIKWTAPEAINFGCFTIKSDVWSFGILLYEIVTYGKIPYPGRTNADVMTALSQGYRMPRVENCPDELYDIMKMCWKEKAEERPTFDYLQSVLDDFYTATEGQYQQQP

[14] = target: Cannabinoid receptor 1 (Homo sapiens) (UniProt P21554); test: Activity at human CB1 receptor at 10 uM
[15] = target: Melanocortin receptor 5 (Homo sapiens) (UniProt P33032); test: Activity at human MC5 receptor at 10 uM
[16] = target: C5a anaphylatoxin chemotactic receptor 1 (Homo sapiens) (UniProt P21730); test: Activity at human C5a receptor at 10 uM
[17] = target: Corticotropin-releasing factor receptor 1 (Homo sapiens) (UniProt P34998); test: Activity at human CRF1 receptor at 10 uM
[18] = AUClast in patient with advanced solid tumor at 160 mg, po administered once daily measured on day 15; type: ADME, organism-based; design: dose 160 mg, time 0 - last, route oral; details: human, in vivo
[19] = target: CDK3/Cyclin E (Homo sapiens) (UniProt P24864+Q00526); test: Activity at human CDK3/cyclinE at 10 uM; type: protein-complex assay
Sequence of CDK3/Cyclin E (Homo sapiens) (P24864 whole entry, looked up): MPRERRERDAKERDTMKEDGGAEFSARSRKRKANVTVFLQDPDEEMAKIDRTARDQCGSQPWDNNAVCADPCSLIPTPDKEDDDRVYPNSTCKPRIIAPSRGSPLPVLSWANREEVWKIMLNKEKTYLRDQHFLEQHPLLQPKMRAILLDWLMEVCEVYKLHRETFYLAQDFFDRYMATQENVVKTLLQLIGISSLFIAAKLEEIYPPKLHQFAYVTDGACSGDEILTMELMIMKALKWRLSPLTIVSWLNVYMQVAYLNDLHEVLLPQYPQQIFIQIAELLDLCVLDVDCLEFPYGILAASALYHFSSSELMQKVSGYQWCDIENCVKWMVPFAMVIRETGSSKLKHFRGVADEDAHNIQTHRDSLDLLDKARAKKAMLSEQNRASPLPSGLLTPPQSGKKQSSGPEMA
Sequence of CDK3/Cyclin E (Homo sapiens) (Q00526 whole entry, looked up): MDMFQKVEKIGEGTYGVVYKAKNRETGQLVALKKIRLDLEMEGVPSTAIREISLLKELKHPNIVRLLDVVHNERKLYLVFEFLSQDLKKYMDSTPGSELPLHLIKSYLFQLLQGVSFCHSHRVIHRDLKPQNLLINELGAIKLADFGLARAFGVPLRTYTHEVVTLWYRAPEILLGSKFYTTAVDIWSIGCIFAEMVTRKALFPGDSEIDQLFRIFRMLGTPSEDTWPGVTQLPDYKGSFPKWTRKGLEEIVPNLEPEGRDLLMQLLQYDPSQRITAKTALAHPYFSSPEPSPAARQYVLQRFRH

[20] = target: Hydroxycarboxylic acid receptor 2 (Homo sapiens) (UniProt Q8TDS4); test: Activity at human GPR109A receptor at 10 uM
Sequence of Hydroxycarboxylic acid receptor 2 (Homo sapiens) (Q8TDS4 whole entry): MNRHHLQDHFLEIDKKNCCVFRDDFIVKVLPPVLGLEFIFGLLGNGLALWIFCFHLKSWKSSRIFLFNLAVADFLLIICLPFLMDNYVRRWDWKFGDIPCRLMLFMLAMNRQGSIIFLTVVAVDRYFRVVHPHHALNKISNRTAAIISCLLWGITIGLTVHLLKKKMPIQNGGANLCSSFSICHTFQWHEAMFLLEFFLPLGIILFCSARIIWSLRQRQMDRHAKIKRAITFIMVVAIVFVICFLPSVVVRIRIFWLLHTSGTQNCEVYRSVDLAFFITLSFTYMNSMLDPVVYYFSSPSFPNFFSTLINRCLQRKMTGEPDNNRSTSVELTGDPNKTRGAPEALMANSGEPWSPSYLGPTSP

[21] = target: Histamine H1 receptor (Homo sapiens) (UniProt P35367); test: Activity at human H1 receptor at 10 uM
[22] = target: Protein kinase C zeta type (Homo sapiens) (UniProt Q05513); test: Activity at human PKCzeta at 10 uM
[23] = target: Cysteinyl leukotriene receptor 1 (Homo sapiens) (UniProt Q9Y271); test: Activity at human CysLT1 receptor at 10 uM
Sequence of Cysteinyl leukotriene receptor 1 (Homo sapiens) (Q9Y271 whole entry): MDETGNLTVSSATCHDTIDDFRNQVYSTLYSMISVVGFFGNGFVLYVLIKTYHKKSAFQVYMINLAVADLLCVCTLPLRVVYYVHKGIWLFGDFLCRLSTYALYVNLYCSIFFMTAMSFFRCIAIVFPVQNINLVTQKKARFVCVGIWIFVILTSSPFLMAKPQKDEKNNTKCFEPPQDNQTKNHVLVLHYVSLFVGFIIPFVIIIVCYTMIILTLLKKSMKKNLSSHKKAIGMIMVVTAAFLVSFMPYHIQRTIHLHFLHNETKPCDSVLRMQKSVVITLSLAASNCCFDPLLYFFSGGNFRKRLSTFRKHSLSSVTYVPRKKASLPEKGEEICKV

[24] = target: Potassium/sodium hyperpolarization-activated cyclic nucleotide-gated channel 4 (Homo sapiens) (UniProt Q9Y3Q4); test: Activity at human HCN4 at 10 uM
[25] = target: Voltage-gated L-type calcium channel (Homo sapiens, UniProt Q13936+Q13698+Q01668+O60840); test: Activity at human L-type calcium channel at 10 uM; type: protein assay
[26] = target: Prokineticin receptor 1 (Homo sapiens) (UniProt Q8TCW9); test: Activity at human PK1 receptor at 10 uM
Sequence of Prokineticin receptor 1 (Homo sapiens) (Q8TCW9 whole entry): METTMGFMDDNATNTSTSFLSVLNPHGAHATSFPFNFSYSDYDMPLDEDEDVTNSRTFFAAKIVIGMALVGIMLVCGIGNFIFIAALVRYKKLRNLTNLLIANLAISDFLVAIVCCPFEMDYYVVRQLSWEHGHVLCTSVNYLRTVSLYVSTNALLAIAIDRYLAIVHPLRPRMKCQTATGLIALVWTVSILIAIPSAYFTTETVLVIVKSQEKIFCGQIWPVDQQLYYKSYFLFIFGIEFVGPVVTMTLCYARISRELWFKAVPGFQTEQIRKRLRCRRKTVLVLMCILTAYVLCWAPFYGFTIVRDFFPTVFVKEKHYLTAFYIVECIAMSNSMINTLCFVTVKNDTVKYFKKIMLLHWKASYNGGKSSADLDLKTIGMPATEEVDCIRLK

[27] = target: C-C chemokine receptor type 2 (Homo sapiens) (UniProt P41597); test: Activity at human CCR2B receptor at 10 uM
[28] = Cmax in patient with advanced solid tumor at 120 mg, po administered once daily measured on day 15; type: ADME, organism-based; design: dose 120 mg, route oral; details: human, in vivo
[29] = target: A-type voltage-gated potassium channel KCND3 (Homo sapiens, UniProt Q9UK17); test: Activity at human Kv4.3 at 10 uM
Sequence of A-type voltage-gated potassium channel KCND3 (Q9UK17 whole entry): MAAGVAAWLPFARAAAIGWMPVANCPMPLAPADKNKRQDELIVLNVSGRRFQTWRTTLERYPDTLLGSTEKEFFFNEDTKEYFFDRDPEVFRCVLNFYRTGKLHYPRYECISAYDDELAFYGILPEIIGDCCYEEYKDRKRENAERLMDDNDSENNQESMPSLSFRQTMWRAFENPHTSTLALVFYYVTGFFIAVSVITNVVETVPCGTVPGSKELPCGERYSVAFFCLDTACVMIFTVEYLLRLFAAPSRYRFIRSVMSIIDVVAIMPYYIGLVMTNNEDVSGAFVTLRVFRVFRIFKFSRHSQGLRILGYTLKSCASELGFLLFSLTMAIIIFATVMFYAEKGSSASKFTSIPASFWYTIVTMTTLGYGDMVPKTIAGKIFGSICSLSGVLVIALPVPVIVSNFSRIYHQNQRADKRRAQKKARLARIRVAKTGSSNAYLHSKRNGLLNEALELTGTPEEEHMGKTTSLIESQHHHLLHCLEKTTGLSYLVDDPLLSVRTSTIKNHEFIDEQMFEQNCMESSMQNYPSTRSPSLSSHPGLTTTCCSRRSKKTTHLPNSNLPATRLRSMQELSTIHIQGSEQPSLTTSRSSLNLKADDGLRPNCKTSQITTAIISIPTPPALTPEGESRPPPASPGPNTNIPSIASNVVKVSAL

Cytochrome P450 3A4 = Cytochrome P450 3A4 (Homo sapiens, UniProt P08684); test: Inhibition of CYP3A4 in human liver microsomes up to 50 uM using midazolam as substrate measured after 10 mins in presence of NADPH by LC-MS/MS analysis; type: ADME
Sequence of Cytochrome P450 3A4 (P08684 whole entry): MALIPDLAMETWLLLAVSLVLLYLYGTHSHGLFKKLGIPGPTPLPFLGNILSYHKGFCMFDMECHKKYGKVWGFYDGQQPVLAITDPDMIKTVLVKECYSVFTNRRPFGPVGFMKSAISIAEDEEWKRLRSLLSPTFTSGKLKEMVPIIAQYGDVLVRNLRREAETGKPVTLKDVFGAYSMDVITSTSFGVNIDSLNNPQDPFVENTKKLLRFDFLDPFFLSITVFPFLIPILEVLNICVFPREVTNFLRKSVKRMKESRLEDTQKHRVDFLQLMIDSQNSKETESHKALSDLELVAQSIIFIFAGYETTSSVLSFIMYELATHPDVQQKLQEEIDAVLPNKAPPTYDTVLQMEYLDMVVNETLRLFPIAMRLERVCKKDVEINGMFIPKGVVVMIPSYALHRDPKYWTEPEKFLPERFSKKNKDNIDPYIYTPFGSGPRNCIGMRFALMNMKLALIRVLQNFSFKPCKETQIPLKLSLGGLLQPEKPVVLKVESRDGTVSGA

[30] = Plasma concentration in patient with advanced solid tumor at 240 mg, po administered once daily measured on day 15 after 24 hrs; type: ADME, organism-based; details: human
[31] = target: Galanin receptor type 1 (Homo sapiens) (UniProt P47211); test: Activity at human GAL1 receptor at 10 uM
[32] = target: Endothelin receptor type B (Homo sapiens) (UniProt P24530); test: Activity at human ETB receptor at 10 uM
[33] = target: Prolactin-releasing peptide receptor (Homo sapiens) (UniProt P49683); test: Activity at human PRP receptor at 10 uM

In the case of `CS(=O)(=O)c1ccc(Oc2cc(F)cc(C#N)c2)c2c1[C@H](O)[C@H](F)[C@@H]2F` [BELZUTIFAN], the Activity [1] is reported as “inactive”, the Vmax [2] is reported as 4.7 pmol/min and the Activity [3] is reported as “inactive”. For the same compound, the Activity [4] was “Not Active”, the Activity [5] was “inactive” and the Activity [6] was “inactive”. The Activity [7] was “inactive”, the half-life [8] was 20.9 h and the Km at 1 h, up to 1000 µM (UGT2B17) was 15 µM. The Activity [9] was “inactive”, the Activity [10] was “inactive” and the Activity [11] was “inactive”. The AUClast/dose [12] was 60 µM·h, the “inhibition (INH)” value (Cytochrome P450 2D6) was “Not Active” and the Activity [13] was “inactive”. For the same compound, the Activity [14] was “inactive”, the Activity [15] was “inactive” and the Activity [16] was “inactive”. For the same compound, the Activity [17] was “inactive”, the AUC(0-t) [18] was 21000 ng·h/mL and the Activity [19] was “inactive”. For the same compound, the Activity [20] was “inactive”, the Activity [21] was “inactive” and the Activity [22] was “inactive”. The Activity [23] was “inactive”, the Activity [24] was “inactive” and the Activity [25] was “Not Active”. For the same compound, the Activity [26] was “inactive”, the Activity [27] was “inactive” and the Cmax [28] was 1800 ng/mL. For the same compound, the Activity [29] was “Not Active”, the “inhibition (INH)” value (Cytochrome P450 3A4) was “Not Active” and the concentration at 24 h [30] was 570 ng/mL. For the same compound, the Activity [31] was “inactive”, the Activity [32] was “inactive” and the Activity [33] was “inactive”.

— ChEMBL document CHEMBL4311943, “3-[(1S,2S,3R)-2,3-Difluoro-1-hydroxy-7-methylsulfonylindan-4-yl]oxy-5-fluorobenzonitrile (PT2977), a Hypoxia-Inducible Factor 2α (HIF-2α) Inhibitor for the Treatment of Clear Cell Renal Cell Carcinoma” (J Med Chem, 2019)
